Laboratory results: patent EP2389922A1, “Cyclohexyl carbamate compounds as anti-ageing actives” (Symrise AG, priority 2010, dated 2011)

Legend:
[1] = tested on: SIRT1; assay: SIRT1 assay: stimulation of SIRT1 expression in NHDF cells (immunofluorescence); assay type: cell-based, human; settings: concentration 30 µM; NHDF cells treated 48 h; mean values of at least 2 independent tests
Method: NHDF cells (normal human dermal fibroblasts) were seeded in 96-well plates. After 24 h cultivation at 37 °C and 5% CO2 in DMEM (Dulbecco's Modified Eagle Medium), cells were treated with test substances for another 48 h. After washing the cells with PBS (phosphate buffered saline), the cells were fixed with paraformaldehyde and permeabilized. Then they were washed again and blocked with BSA (bovine serum albumen), followed by incubation with […]. After extensive washing, the fluorescence is measured in a microplate reader and fluorescence images were recorded on a fluorescence microscope with an attached […]. The stimulation of SIRT1 expression was calculated by: StimulationofSIRT1expression[%] = ((RFUtestesubstance−RFUbackground)/(RFUcontrol−RFUbackground)×100)−100 [formula] RFU test substance = relative fluorescent units of the wells with test substance, stained completely RFU control = relative fluorescent units of the wells without test substance, stained completely RFU background = relative fluorescent units of the wells without test substance, stained only with secondary antibody. Table Example 2: Stimulation of SIRT1 expression by the individual substances (mean values of at least 2 independent tests)

[2] = molecular target: isolated 20S proteasome (Homo sapiens, UniProt P28074); assay: Measurement of proteasome activity using isolated proteasome (chymotrypsin-like activity, MCA liberation); assay type: biochemical; settings: mean values of 3 independent tests
Text: The method used herein to investigate the proteasome stimulating activity of a substance is based on the measurement of the 20S proteasome core activity. To detect this activity, the isolated 20S proteasome reacts with an oligopeptide, which is bound to a fluorochrome. With its chymotrypsin-like proteolytic activity, the proteasome degrades the oligopeptide and liberates the fluorochrome. For this assay 4-methyl-coumaryl-amide (MCA) was used as fluorochrome. Liberation of MCA correlates linearly with the proteasome activity. MCA wass detected using an excitation of 360 nm and an emission of 460 nm.
For interpretation, the measured proteasome activities / intensities of fluorescence were compared with pure MCA standards at distinct concentrations.
Two different controls were used for each assay. One "ordinary" control (C) which consisted of isolated proteasome alone, and a DMSO-control (DC). DC was necessary because all substances were diluted in DMSO. Proteasome activity was calculated relative to DMSO control (0 mM). Table Example 3.1: Measurement of proteasome activity of BIO1272 using isolated proteasome (mean values of 3 independent tests)

[3] = molecular target: T1, proteasome (Homo sapiens, UniProt P28074); assay: Measurement of proteasome activity using cell lysates (HaCaT cells, MCA liberation); assay type: biochemical; settings: HaCaT cell lysate, relative to DMSO control (0 mM = 100 %), mean values of 3 independent tests
T1 construct: endogenous in cells; host or cells: HaCaT human keratinocytes (cell lysate)
Method: To determine proteasome activity in cell lysate, human keratinocyte cell lines (HaCaT cells) were seeded out in Petri-dishes (area: 22.1 cm^2) and harvested when they reached confluence. Isolation of the pure cell lysate included cell washing, incubation and homogenization in lysis buffer (250mM sucrose, 25mM HEPES (4-(2-hydroxyethyl)-1-piperazineethanesulfonic acid), 10mM MgCl2*6H2O, 1.3mM EDTA) and final cell lysis with liquid nitrogen. Determination of proteasome activity is based on the liberation of MCA and the corresponding fluorescence like described above in example 3.1. Proteasome activity was calculated relative to DMSO control (0 mM). Table Example 3.2: Measurement of proteasome activity of BIO1272 using cellular extracts (mean values of 3 independent tests)

[4] = tested on: yeast; settings: cited from earlier work
[5] = tested on: fish; settings: cited from earlier work

| SMILES | Stimulation of SIRT1 expression [1] | also measured |
| --- | --- | --- |
| CCCCNC(=O)O[C@@H]1C[C@H](C)CC[C@H]1C(C)C [BIO1267, n-Butyl-carbamic acid (1R,2S,5R)-2-isopropyl-5-methyl-cyclohexyl ester] | 29% | – |
| CCCCCCNC(=O)O[C@@H]1C[C@H](C)CC[C@H]1C(C)C [BIO1271, Hexyl-carbamic acid (1R,2S,5R)-2-isopropyl-5-methyl-cyclohexyl ester] | 66% | – |
| CC(C)NC(=O)O[C@@H]1C[C@H](C)CC[C@H]1C(C)C [BIO1272, Isopropyl-carbamic acid (1R,2S,5R)-2-isopropyl-5-methyl-cyclohexyl ester] | – | Relative proteasome activity [%] ([2]; 5mM BIO1272, relative to DMSO control (0 mM = 100 %)): 125%; Relative proteasome activity [%] ([2]; 10mM BIO1272, relative to DMSO control (0 mM = 100 %)): 210%; Relative proteasome activity [%] ([2]; 20mM BIO1272, relative to DMSO control (0 mM = 100 %)): 250%; Relative proteasome activity [%] ([3]; 5mM BIO1272): 105%; Relative proteasome activity [%] ([3]; 10mM BIO1272): 120%; Relative proteasome activity [%] ([3]; 20mM BIO1272): 140% |
| CC(C)[C@@H]1CC[C@@H](C)C[C@H]1OC(=O)Nc1ccccc1 [BIO1580, Phenyl-carbamic acid (1R,2S,5R)-2-isopropyl-5-methyl-cyclohexyl ester] | 117% | – |
| CCCCNC(=O)OC1C(C)CCC(C)C1C (stereo not shown) [BIO1617, n-Butyl-carbamic acid 2,3,6-trimethyl-cyclohexyl ester] | 24% | – |
| CCc1ccc(NC(=O)OC2CC(C)CC(C)C2)cc1 (stereo not shown) [BIO1823, (4-Ethyl-phenyl)-carbamic acid 3,5-dimethyl-cyclohexyl ester] | 66% | – |
| CCCCNC(=O)OC1CCCCC1C(C)C (stereo not shown) [BIO1841, n-Butyl-carbamic acid 2-isopropyl-cyclohexyl ester] | 14% | – |
| CCC(C)NC(=O)OC1CCCC(C)C1C (stereo not shown) [BIO1845, sec-Butyl-carbamic acid 2,3-dimethyl-cyclohexyl ester] | 52% | – |
| CCCCNC(=O)O[C@H]1C[C@@H](C)CC[C@@H]1C(C)C [BIO1860, Butyl-carbamic acid (1S,2R,5S)-2-isopropyl-5-methyl-cyclohexyl ester] | 47% | – |
| Oc1ccc(C=Cc2cc(O)cc(O)c2)cc1 [Resveratrol] | – | extending lifespan [4]: 70%; extending lifespan [5]: 60% |
